Where “and” joins values, the source holds several entries; their conditions need not be identical. Equal values may be shown once.

For the test, the system named is MCF7 complex spheroid growth, % test/control. In words: Anticancer human tumor MCF7 cell line growth inhibition [Asc].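 As to all read-outs here: spheroids exposed to compounds for 7 days.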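 As to viability, T/C: 100% = DMSO vehicle control wells.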 To be noted: for viability, T/C: stronger effect = lower value. Here is the method: Multicellular complex tumor spheroid response to apoptosis pathway targeting inhibitors Alrizomadlin, Pelcitoclax, and Dasminapant in combination with a variety of drugs and investigational agents in selected tumor cell lines
The MDM2 inhibitor alrizomadlin, the Bcl-2/Bcl-xL inhibitor pelcitoclax, and the IAPs inhibitor dasminapant were evaluated both individually and in combination with standard of care and investigational anticancer small molecules within a complex spheroid model of solid tumors. . Complex spheroids include a stromal component modeled by human endothelial cells (HUVEC) and fibroblasts modeled by human mesenchymal stem cells (MSCs). The concentration ranges selected for each drug and investigational agent were based upon clinically achievable concentrations if the clinical Cmax of the agent was known.
Compounds. The drugs and investigational agents: alrizomadlin (APG-115; NSC831270), pelcitoclax (APG-1252; NSC835773), dasminapant (APG-1387;NSC834197), TAK-243 (NSC785004), copanlisib (NSC809693), olaparib (NSC753686), talazoparib (NSC767125), cobimetinib (NSC 768068), eltanexor (KPT-8602, NSC 794443), abemaciclib (NSC 768073), sotorasib (NSC818433), adagrasib (NSC 831453), MRTX-1133 (NSC 836407), Iadademestat (ORY1001, NSC 806812), and RMC-4630 (NSC839698), were obtained from the NCI Developmental Therapeutics Program Chemical Repository. The FDA-approved anticancer drug set is available from the Developmental Therapeutics Program at https://dtp.cancer.gov/organization/dscb/obtaining/available plates.htm. […] The stock solutions were prepared in dimethyl sulfoxide (DMSO, Sigma-Aldrich, St. Louis, MO, cat. D2650) at 800-fold the tested concentration and stored at -70 degrees C prior to their use. All drugs and investigational agents were tested over a range starting from a high concentration at or near the clinical Cmax and decreasing in half-log increments. If the clinical Cmax for an agent had not been determined, the highest concentration tested was 10 microM.
The patient-derived cancer (PDC) cell lines include five colon adenocarcinomas: 186277-243-T-J2-PDC, 616215-338-R-J1-PDC, 439559-082-T-J2-PDC, 463943-066-T-J2-PDC, and 519858-162-T-J1-PDC; three pancreatic carcinomas: 323965-272-R-J2-PDC, 521955-158-R6-J3-PDC, and 521955-158-R2-J5-PDC; two uterine sarcomas: 327498-152-R-J2-PDC and 993429-296-R-J1-PDC; two rhabdomyosarcomas: 755483-174-R-J1-PDC and 772245-204-R-J1-PDC; two soft tissue sarcomas: 126254-015-R-J1-PDC and 494315-158-R-J1-PDC; two malignant fibrous histiocytomas: 317291-083-R-J1-PDC and 596521-263-R-J1-PDC; two breast carcinomas: 171881-019-R-J1-PDC and 885512-296-R-J2-PDC; and one ovarian carcinoma: 6556581-035-R-J-PDC were obtained from the NCI PDMR, (https://pdmr.cancer.gov). The established cell lines HSSY-2 synovial sarcoma (RRID:CVCL 8719), SYO-1 synovial sarcoma (RRID:CVCL_7146), MPNST malignant peripheral neural sheath tumor were obtained from the Sloan Kettering Institute. The following established cell lines were purchased from the American Type Culture Collection (ATCC, Manassas, VA), Sor the received from the NCI repository:, PANC-1 pancreatic carcinoma (CRL-1469, RRID:CVCL_0480), OVCAR-5 ovarian carcinoma (RRID:CVCL_1628), OVCAR-8 ovarian carcinoma (RRID:CVCL_1629), , MCF-7 breast carcinoma (CRL-12584, RRID:CVCL_0031), MDA-MB-231 breast carcinoma (CRL-12532, RRID:CVCL_0062), NCI-H1876 small cell lung carcinoma (CRL-5902, RRID:CVCL_1503), NCI-H510A small cell lung carcinoma (HTB-184, RRID:CVCL_1565), NCI-H1417 (CRL-5869, RRID:CVCL_1469), and NCI-H196 small cell lung carcinoma (CRL-5823, RRID:CVCL_1509). Dr. Peter Houghton (Greehey Children's Cancer Research Institute, University of Texas Health Science Center, San Antonio, TX) provided Rh-18 rhabdomyosarcoma (RRID:CVCL_1659). Pooled donor human umbilical vein endothelial cells (HUVEC, Lonza, cat. CC-2519) and human mesenchymal stem cells (hMSC, Lonza, cat. PT-2501) were purchased from Lonza (Walkersville, MD).
Cell Culture. […]

Turning to `COc1c(OCCCN2CCOCC2)ccc2c3n(c(=NC(=O)c4cnc(N)nc4)nc12)CCN3` + CNC(C)C(=O)NC1CN(S(=O)(=O)c2cccc(S(=O)(=O)N3CCC4CCC(C(=O)NC(c5ccccc5)c5ccccc5)N4C(=O)C(NC(=O)C(C)NC)C3)c2)CCC2CCC(C(=O)NC(c3ccccc3)c3ccccc3)N2C1=O, the concentration for half-maximal inhibition (IC50) was 0.0032 µM (curve of first compound, second compound 0.00316 µM); less than 0.00316 µM (curve of first compound, second compound 0.01 µM); less than 0.00316 µM (curve of first compound, second compound 0.0316 µM); less than 0.00316 µM (curve of first compound, second compound 0.1 µM); less than 0.00316 µM (curve of first compound, second compound 0.316 µM); less than 0.00316 µM (curve of first compound, second compound 1 µM). Besides, the viability, T/C reads like this: (second compound 0.00316 µM, first compound 0.00316 µM) 50.2%; (second compound 0.00316 µM, first compound 0.01 µM) 35.3%; (second compound 0.00316 µM, first compound 0.0316 µM) 14.7%; (second compound 0.00316 µM, first compound 0.1 µM) 8.43%; (second compound 0.00316 µM, first compound 0.316 µM) 8.17%; (second compound 0.00316 µM, first compound 1 µM) 8.35%. For the same compound, the viability, T/C runs as follows: (second compound 0.01 µM, first compound 0.00316 µM) 10.9%; (second compound 0.01 µM, first compound 0.01 µM) 9.75%; (second compound 0.01 µM, first compound 0.0316 µM) 9.42%; (second compound 0.01 µM, first compound 0.1 µM) 8.15%; (second compound 0.01 µM, first compound 0.316 µM) 6.06%; (second compound 0.01 µM, first compound 1 µM) 8.55%. The viability, T/C was 12.6% (second compound 0.0316 µM, first compound 0.00316 µM); 10.9% (second compound 0.0316 µM, first compound 0.01 µM); 9.42% (second compound 0.0316 µM, first compound 0.0316 µM); 9.87% (second compound 0.0316 µM, first compound 0.1 µM); 7.86% (second compound 0.0316 µM, first compound 0.316 µM); 8.09% (second compound 0.0316 µM, first compound 1 µM). Besides, the viability, T/C by setting is: (second compound 0.1 µM, first compound 0.00316 µM) 13.9%; (second compound 0.1 µM, first compound 0.01 µM) 11.1%; (second compound 0.1 µM, first compound 0.0316 µM) 10.8%; (second compound 0.1 µM, first compound 0.1 µM) 12%; (second compound 0.1 µM, first compound 0.316 µM) 10.7%; (second compound 0.1 µM, first compound 1 µM) 8.86%. Besides, the viability, T/C reads like this: (second compound 0.316 µM, first compound 0.00316 µM) 11.8%; (second compound 0.316 µM, first compound 0.01 µM) 9.96%; (second compound 0.316 µM, first compound 0.0316 µM) 10.1%; (second compound 0.316 µM, first compound 0.1 µM) 10%; (second compound 0.316 µM, first compound 0.316 µM) 8.17%; (second compound 0.316 µM, first compound 1 µM) 8.52%. The viability, T/C is 11.3% (second compound 1 µM, first compound 0.00316 µM); 9.91% (second compound 1 µM, first compound 0.01 µM); 13% (second compound 1 µM, first compound 0.0316 µM); 10.5% (second compound 1 µM, first compound 0.1 µM); 9.23% (second compound 1 µM, first compound 0.316 µM); 9.11% (second compound 1 µM, first compound 1 µM).

Take `NC1CCC(NC2CC2c2ccccc2)CC1` (configuration not stated): the viability, T/C runs as follows: (compound 0.000316 µM) 89.7% and 112% and 107%; (compound 0.001 µM) 115% and 132% and 136%; (compound 0.00316 µM) 128% and 133% and 125%; (compound 0.01 µM) 129% and 106% and 132%; (compound 0.0316 µM) 136% and 104% and 108%; (compound 0.1 µM) 102% and 147% and 137%. Moreover, the IC50 (curve of compound) is more than 0.1 µM.

For the compound `CCN1C(C(=O)NC23CCC(C(=O)O)(CC2)CC3)C(c2cccc(Cl)c2F)C2(C(=O)Nc3cc(Cl)ccc32)C12CCCCC2` (configuration not stated), the viability, T/C (compound 0.00949 µM) is 102% [middle of 9 runs]; the viability, T/C (compound 0.0949 µM) is 48.1% [middle of 9 runs]; the viability, T/C (compound 0.3 µM) is 33.8% [middle of 9 runs]; the viability, T/C (compound 0.949 µM) was 23.2% [middle of 9 runs]; the viability, T/C (compound 3 µM) is 15.6% [middle of 9 runs]. Besides, the IC50 reads like this: (compound alone, run of 11/07/2022) 94.5 nM [middle of 7 runs]; (curve of compound) 0.0709 µM and 0.108 µM.

As for `C=C(F)C(=O)N1CCN(c2nc(OCC3CCCN3C)nc3c2CCN(c2cccc4cccc(Cl)c24)C3)CC1CC#N` (configuration not stated), the viability, T/C was 82.4% and 98.6% and 109% (compound 0.0316 µM); 92.8% and 99.8% and 107% (compound 0.1 µM); 90.7% and 97.9% and 95.7% (compound 0.316 µM); 75.4% and 92.3% and 89.9% (compound 1 µM); 31% and 80% and 72.3% (compound 3.16 µM); 0.38% and 0.28% and 0.27% (compound 10 µM). In addition, the IC50 (curve of compound) was 1.94 µM and 4.85 µM and 4.36 µM.

Turning to `Cn1ncnc1[C@H]1c2n[nH]c(=O)c3cc(F)cc(c23)N[C@@H]1c1ccc(F)cc1`, the viability, T/C was 95.7% and 82.9% and 96.4% (compound 0.000316 µM); 97.3% and 106% and 99.9% (compound 0.001 µM); 97.1% and 107% and 101% (compound 0.00316 µM); 63.8% and 84.2% and 67.2% (compound 0.01 µM); 60% and 87.7% and 88.1% (compound 0.0316 µM); 48.8% and 84.9% and 75.1% (compound 0.1 µM). In addition, the IC50 (curve of compound) is more than 0.1 µM.

On to `CCN1CCN(Cc2ccc(Nc3ncc(F)c(-c4cc(F)c5nc(C)n(C(C)C)c5c4)n3)nc2)CC1`, for which the viability, T/C (compound 0.00316 µM) was 111% and 93.3% and 96.7%; the viability, T/C (compound 0.01 µM) is 95.5% and 104% and 99.9%; the viability, T/C (compound 0.0316 µM) is 103% and 93.3% and 99.2%; the viability, T/C (compound 0.1 µM) is 116% and 96.6% and 91.2%; the viability, T/C (compound 0.316 µM) was 99% and 97% and 81.4%; the viability, T/C (compound 1 µM) is 74.3% and 86.7% and 72.5%. Under “curve of compound”, the IC50 is more than 1 µM.

These data come from PubChem BioAssay AID1963445 (Molecular Pharmacology Branch, DTP, NCI, 2024).
